These results are taken from patent US9522154B2, “Method for scheduling ovulation” (LABORATOIRE HRA-PHARMA, priority 2013, dated 2016).

In data set [1] the test system is women. Briefly: Open-label trial of repeated ulipristal acetate 30 mg oral tablet, once weekly (Q7D) or every 5 days (Q5D) for 8 weeks: ovulation. Type of data set: in vivo, human. The protocol:
In an open-label designed trial, 12 women received once weekly (Q7D) treatment with ulipristal acetate (30 mg oral tablet) for eight consecutive weeks starting on 7 days ±1 day after the onset of menses in the first cycle; and 11 women received ulipristal acetate 30 mg every 5 days (Q5D) for 8 weeks. […] The first ovulation occurred after a mean of 3.4 and 6.5 doses, and a mean of 17 and 26 days after start of treatment, in the Q7D and Q5D treatment arms, respectively.
Whenulipristal acetate was given during the follicular phase before the onset of the LH surge, ovulation occurred between 6 and 9 days of the last treatment intake in the majority of women.

Data set [2] has as its system women. The conditions noted are these: single dose of 30 mg within 72 hours or 120 hours after the intercourse; cited from earlier work.
Another data set deals with leading ovarian follicle. Description: Clinical trial of a single oral 30 mg dose on the outcome of the leading ovarian follicle before LH surge. Type of data set: in vivo, human. The conditions noted are these: follicle 14-16 mm. The protocol:
The results from the clinical trial described in Example 2 were confirmed by a second clinical trial designed to evaluate the effect of a single oral dosage of 30 mg ulipristal acetate on the outcome of the leading ovarian follicle before LH surge, when the follicle was 14-16 mm in diameter. 31 women satisfying all the exclusion/inclusion criteria were enrolled. After the inclusion visit, the women entered the study and underwent ultrasound monitoring starting from Day 5 of their menstrual cycle until the lead follicle reached a diameter of 14-16 mm. At this time, the women received one single dosage of 30 mg ulipristal acetate orally. The women were then monitored daily by ultrasound and hormonal assays until the end of the 21 days treatment period or until ovulation occurred or until the mucus score reached 4 or less at 2 consecutive visits, whichever came first. After which point they were seen twice a week until the end of the study.

`CC(=O)O[C@]1(C(C)=O)CC[C@H]2[C@@H]3CCC4=CC(=O)CCC4=C3[C@@H](c3ccc(N(C)C)cc3)C[C@@]21C` [ulipristal acetate, 17α-acetoxy-11β-[4-N, N-dimethylamino-phenyl)-19-norpregna-4,9-diene-3,20-dione]: the “mean time to first ovulation after start of treatment” value in the data set on women [1] (Q5D arm, 30 mg every 5 days for 8 weeks) worked out at 26 days. Besides, the “mean number of doses until first ovulation” value with women [1] (Q5D arm, 30 mg every 5 days for 8 weeks, 11 women) stood at 6.5 doses. For the same compound, in the data set on women [1] (Q7D and Q5D regimens, majority of subjects), the “inhibition of ovulation throughout the duration of treatment” value is “Neither regimen inhibited ovulation throughout the duration of treatment in a majority of subjects”. Moreover, the “mean time to first ovulation after start of treatment” value in the data set with women [1] (Q7D arm, 30 mg oral tablet once weekly for 8 weeks) is on record as 17 days. Further, the “mean number of doses until first ovulation” value in the data set with women [1] (Q7D arm, 30 mg oral tablet once weekly for 8 weeks, 12 women) is recorded as 3.4 doses. Moreover, in the data set with women [1] (after exposure to 30 mg), the “parameters of the luteal phase (duration, progesterone levels)” value is reported as “remain within the normal range”. Also, the “fertilizability of the oocyte” value in the data set on women [1] (despite lengthened follicular phase and delay of LH surge, normal pregnancies after 30 mg exposure in emergency contraception trials) is “the oocyte remains fertilizable”. In the data set on women [2], the “avoidance of unwanted pregnancy (emergency contraception)” value is “safe and effective”. Besides, in the data set on leading ovarian follicle, the “mean duration for the ovulation to occur” value was found to be 7 days and the “median duration for the ovulation to occur” value turned out to be 6 days. Also, in the data set on leading ovarian follicle (31 women), the “Outcome of the leading follicle: Atresia, number of women” value worked out at 0; the “Outcome of the leading follicle: LUF, number of women” value is 2; the “Outcome of the leading follicle: Luteal phase insufficiency, number of women” value is reported as 1; the “Outcome of the leading follicle: Ovulation, number of women” value came to 27. Besides, in the data set on leading ovarian follicle (31 women), the “Outcome of the leading follicle: Persistent Follicle, number of women” value was found to be 1.
